Measured values: patent US10961202B2, “Bis-benzimidazole compounds and methods of using the same” (THE SCRIPPS RESEARCH INSTITUTE, priority 2017, dated 2021)

Each compound was assayed on r(CUG)12-MBNL1 complex (assay: Inhibition of the r(CUG)12-MBNL1 complex measured by TR-FRET). Details: Table M; 80 nM RNA, 60 nM MBNL1-His6.
Assay type: biochemical
In the case of `CN(C)CCNC(=O)c1ccc(-c2nc3cc(-c4ccc5[nH]c(-c6ccc(C(=O)O)cc6)nc5c4)ccc3[nH]2)cc1` [Compound 390, 4-(2′-(4-((2-(dimethylamino)ethyl)carbamoyl)phenyl)-3H,3′H-[5,5′-bibenzo[d]imidazol]-2-yl)benzoic acid], the IC50 is reported as over 200 µM.
In the case of `COCCCOc1ccc(-c2nc3cc(-c4ccc5[nH]c(-c6ccc(C(=O)NCCN(C)C)cc6)nc5c4)ccc3[nH]2)cc1` [Compound 391], the IC50 is reported as 18.4 µM.
Compound `CCCCCOc1ccc(-c2nc3cc(-c4ccc5[nH]c(-c6ccc(C(=O)NCCN(C)C)cc6)nc5c4)ccc3[nH]2)cc1` [Compound 392] has an IC50 of 18.3 µM.
With `CN(C)CCNC(=O)c1ccc(-c2nc3cc(-c4ccc5[nH]c(-c6ccc(OCCCC#N)cc6)nc5c4)ccc3[nH]2)cc1` [Compound 394] the IC50 was 19 µM.
With `CN(C)CCCOc1ccc(-c2nc3cc(-c4ccc(C(=O)NCCN(C)CCN)cc4)ccc3[nH]2)cc1` [Compound 395] the IC50 was over 200 µM.
`CC(=O)NCCN(C)CCNC(=O)c1ccc(-c2ccc3[nH]c(-c4ccc(OCCCN(C)C)cc4)nc3c2)cc1` [Compound 396] showed an IC50 of over 200 µM.
`CN(C)CCNC(=O)c1ccc(-c2nc3cc(-c4ccc5[nH]c(-c6ccc(C(=O)NCCOCCOCCOCCOCCN=[N+]=[N-])cc6)nc5c4)ccc3[nH]2)cc1` [Compound 397] was tested, and the IC50 was 12.2 µM.
In the case of `CN(C)CCNC(=O)c1ccc(-c2nc3cc(-c4ccc5[nH]c(-c6ccc(C(=O)NCCOCCOCCN=[N+]=[N-])cc6)nc5c4)ccc3[nH]2)cc1` [Compound 398], the IC50 is reported as 14.7 µM.
For `CN(C)CCNC(=O)c1ccc(-c2nc3cc(-c4ccc5[nH]c(-c6ccc(C(=O)NCCCN=[N+]=[N-])cc6)nc5c4)ccc3[nH]2)cc1` [Compound 399], the IC50 was 9.6 µM.
Compound `CN(C)CCCOc1ccc(-c2nc3cc(-c4ccc5[nH]c(-c6ccc(C(=O)NCCCN=[N+]=[N-])cc6)nc5c4)ccc3[nH]2)cc1` [Compound 400] has an IC50 of 14.8 µM.
`C[C@@H](NC(=O)CNCCCn1cc(CCCCN(C)CCNC(=O)CCCOc2ccc3[nH]c(-c4ccc(-c5nc6cc(OCCCN(C)C)ccc6[nH]5)cc4)nc3c2)nn1)C(=O)N[C@H](C)C(=O)N[C@H](C)C(=O)N[C@H](C)C(=O)N(CCCn1cc(CCCCN(C)CCNC(=O)CCCOc2ccc3[nH]c(-c4ccc(-c5nc6cc(OCCCN(C)C)ccc6[nH]5)cc4)nc3c2)nn1)CC(N)=O` [Compound 407] gave an IC50 of 110 µM.
With `CN(C)CCNC(=O)c1ccc(-c2nc3cc(-c4ccc5[nH]c(-c6ccc(C(=O)N(C)CCCN(C)C(=O)c7ccc(-c8nc9cc(-c%10ccc%11[nH]c(-c%12ccc(C(=O)NCCN(C)C)cc%12)nc%11c%10)ccc9[nH]8)cc7)cc6)nc5c4)ccc3[nH]2)cc1` [Compound 409] the IC50 was 50.6 µM.
For `CN(C)CCNC(=O)c1ccc(-c2nc3cc(-c4ccc5[nH]c(-c6ccc(C(=O)NC7CCCCC7NC(=O)c7ccc(-c8nc9cc(-c%10ccc%11[nH]c(-c%12ccc(C(=O)NCCN(C)C)cc%12)nc%11c%10)ccc9[nH]8)cc7)cc6)nc5c4)ccc3[nH]2)cc1` (stereo not shown) [Compound 410], the IC50 was 34.4 µM.
`CC(CNC(=O)c1ccc(-c2nc3cc(-c4ccc5[nH]c(-c6ccc(C(=O)NCCN(C)C)cc6)nc5c4)ccc3[nH]2)cc1)NC(=O)c1ccc(-c2nc3cc(-c4ccc5[nH]c(-c6ccc(C(=O)NCCN(C)C)cc6)nc5c4)ccc3[nH]2)cc1` (stereo not shown) [Compound 411] gave an IC50 of 1.91 µM.
In the case of `CN(C)CCNC(=O)c1ccc(-c2nc3cc(-c4ccc5[nH]c(-c6ccc(C(=O)NCCNC(=O)c7ccc(-c8nc9cc(-c%10ccc%11[nH]c(-c%12ccc(C(=O)NCCN(C)C)cc%12)nc%11c%10)ccc9[nH]8)cc7)cc6)nc5c4)ccc3[nH]2)cc1` [Compound 412], the IC50 is reported as 3.28 µM.
`CN(C)CCNC(=O)c1ccc(-c2nc3cc(-c4ccc5[nH]c(-c6ccc(C(=O)NCCCNC(=O)c7ccc(-c8nc9cc(-c%10ccc%11[nH]c(-c%12ccc(C(=O)NCCN(C)C)cc%12)nc%11c%10)ccc9[nH]8)cc7)cc6)nc5c4)ccc3[nH]2)cc1` [Compound 413] gave an IC50 of 3.34 µM.
For `CN(C)CCNC(=O)c1ccc(-c2nc3cc(-c4ccc5[nH]c(-c6ccc(C(=O)NCCCCCNC(=O)c7ccc(-c8nc9cc(-c%10ccc%11[nH]c(-c%12ccc(C(=O)NCCN(C)C)cc%12)nc%11c%10)ccc9[nH]8)cc7)cc6)nc5c4)ccc3[nH]2)cc1` [Compound 414], the IC50 was 8.16 µM.
With `C[C@@H](C(=O)N(C)[C@@H](C)C(=O)N(C)[C@@H](C)C(=O)N(CCCCN(C)C(=O)c1ccc(-c2nc3cc(-c4ccc5[nH]c(-c6ccc(C(=O)NCCN(C)C)cc6)nc5c4)ccc3[nH]2)cc1)CC(N)=O)N(C)C(=O)c1ccc(-c2nc3cc(-c4ccc5[nH]c(-c6ccc(C(=O)NCCN(C)C)cc6)nc5c4)ccc3[nH]2)cc1` [Compound 415] the IC50 was 5.15 µM.
In the case of `C[C@@H](C(=O)N(C)[C@@H](C)C(=O)N(C)[C@@H](C)C(=O)N(C)[C@@H](C)C(=O)N(CCCCN(C)C(=O)c1ccc(-c2nc3cc(-c4ccc5[nH]c(-c6ccc(C(=O)NCCN(C)C)cc6)nc5c4)ccc3[nH]2)cc1)CC(N)=O)N(C)C(=O)c1ccc(-c2nc3cc(-c4ccc5[nH]c(-c6ccc(C(=O)NCCN(C)C)cc6)nc5c4)ccc3[nH]2)cc1` [Compound 416], the IC50 is reported as 39 µM.
`C[C@@H](C(=O)N(C)[C@@H](C)C(=O)N(C)[C@@H](C)C(=O)N(C)[C@@H](C)C(=O)N(C)[C@@H](C)C(=O)N(CCCCN(C)C(=O)c1ccc(-c2nc3cc(-c4ccc5[nH]c(-c6ccc(C(=O)NCCN(C)C)cc6)nc5c4)ccc3[nH]2)cc1)CC(N)=O)N(C)C(=O)c1ccc(-c2nc3cc(-c4ccc5[nH]c(-c6ccc(C(=O)NCCN(C)C)cc6)nc5c4)ccc3[nH]2)cc1` [Compound 417] gave an IC50 of 9.24 µM.
Compound `CC(=O)N(CCCCN(C)C(=O)c1ccc(-c2nc3cc(-c4ccc5[nH]c(-c6ccc(C(=O)NCCN(C)C)cc6)nc5c4)ccc3[nH]2)cc1)CC(=O)N(C)[C@@H](C)C(=O)N(C)[C@@H](C)C(=O)N(C)[C@@H](C)C(=O)N(CCCCN(C)C(=O)c1ccc(-c2nc3cc(-c4ccc5[nH]c(-c6ccc(C(=O)NCCN(C)C)cc6)nc5c4)ccc3[nH]2)cc1)CC(N)=O` [Compound 418] has an IC50 of 5.32 µM.
With `CN(C)CCNC(=O)c1ccc(-c2nc3cc(-c4ccc5[nH]c(-c6ccc(C(=O)NCCCCCCNC(=O)c7ccc(-c8nc9cc(-c%10ccc%11[nH]c(-c%12ccc(C(=O)NCCN(C)C)cc%12)nc%11c%10)ccc9[nH]8)cc7)cc6)nc5c4)ccc3[nH]2)cc1` [Compound 419] the IC50 was 4.85 µM.
Work on `CN(C)CCNC(=O)c1ccc(-c2nc3cc(-c4ccc5[nH]c(-c6ccc(C(=O)NCCCCNC(=O)c7ccc(-c8nc9cc(-c%10ccc%11[nH]c(-c%12ccc(C(=O)NCCN(C)C)cc%12)nc%11c%10)ccc9[nH]8)cc7)cc6)nc5c4)ccc3[nH]2)cc1` [Compound 420] yielded an IC50 of 6.32 µM.
With `CN(C)CCNC(=O)c1ccc(-c2nc3cc(-c4ccc5[nH]c(-c6ccc(C(=O)NCCCCCCCNC(=O)c7ccc(-c8nc9cc(-c%10ccc%11[nH]c(-c%12ccc(C(=O)NCCN(C)C)cc%12)nc%11c%10)ccc9[nH]8)cc7)cc6)nc5c4)ccc3[nH]2)cc1` [Compound 421] the IC50 was 14.8 µM.
In the case of `CN(C)CCNC(=O)c1ccc(-c2nc3cc(-c4ccc5[nH]c(-c6ccc(C(=O)NCCCCCCCCNC(=O)c7ccc(-c8nc9cc(-c%10ccc%11[nH]c(-c%12ccc(C(=O)NCCN(C)C)cc%12)nc%11c%10)ccc9[nH]8)cc7)cc6)nc5c4)ccc3[nH]2)cc1` [Compound 422], the IC50 is reported as 5.65 µM.
`CN(C)CCNC(=O)c1ccc(-c2nc3cc(-c4ccc5[nH]c(-c6ccc(C(=O)NCCCCCCCCCNC(=O)c7ccc(-c8nc9cc(-c%10ccc%11[nH]c(-c%12ccc(C(=O)NCCN(C)C)cc%12)nc%11c%10)ccc9[nH]8)cc7)cc6)nc5c4)ccc3[nH]2)cc1` [Compound 423] showed an IC50 of 5.31 µM.
`CN(C)CCNC(=O)c1ccc(-c2nc3cc(-c4ccc5[nH]c(-c6ccc(C(=O)NCCCCCCCCCCNC(=O)c7ccc(-c8nc9cc(-c%10ccc%11[nH]c(-c%12ccc(C(=O)NCCN(C)C)cc%12)nc%11c%10)ccc9[nH]8)cc7)cc6)nc5c4)ccc3[nH]2)cc1` [Compound 424] was tested, and the IC50 was 5.82 µM.
`CN(C)CCNC(=O)c1ccc(-c2nc3ccc(-c4ccc5nc(-c6ccc(C(=O)NCC(C)(C)CNC(=O)c7ccc(-c8nc9ccc(-c%10ccc%11nc(-c%12ccc(C(=O)NCCN(C)C)cc%12)[nH]c%11c%10)cc9[nH]8)cc7)cc6)[nH]c5c4)cc3[nH]2)cc1` [Compound 425] showed an IC50 of 9.83 µM.
In the case of `CC(CCCNC(=O)c1ccc(-c2nc3ccc(-c4ccc5nc(-c6ccc(C(=O)NCCN(C)C)cc6)[nH]c5c4)cc3[nH]2)cc1)CNC(=O)c1ccc(-c2nc3ccc(-c4ccc5nc(-c6ccc(C(=O)NCCN(C)C)cc6)[nH]c5c4)cc3[nH]2)cc1` (stereo not shown) [Compound 426], the IC50 is reported as 7.04 µM.
Compound `CN(C)CCNC(=O)c1ccc(-c2nc3ccc(-c4ccc5nc(-c6ccc(C(=O)N7CCC(CCCC8CCN(C(=O)c9ccc(-c%10nc%11ccc(-c%12ccc%13nc(-c%14ccc(C(=O)NCCN(C)C)cc%14)[nH]c%13c%12)cc%11[nH]%10)cc9)CC8)CC7)cc6)[nH]c5c4)cc3[nH]2)cc1` [Compound 427] has an IC50 of 3.23 µM.
For `CN(C)CCNC(=O)c1ccc(-c2nc3ccc(-c4ccc5nc(-c6ccc(C(=O)NC7CCC(CC8CCC(NC(=O)c9ccc(-c%10nc%11ccc(-c%12ccc%13nc(-c%14ccc(C(=O)NCCN(C)C)cc%14)[nH]c%13c%12)cc%11[nH]%10)cc9)CC8)CC7)cc6)[nH]c5c4)cc3[nH]2)cc1` (stereo not shown) [Compound 428], the IC50 was 2.9 µM.
`CN(C)CCNC(=O)c1ccc(-c2nc3ccc(-c4ccc5nc(-c6ccc(C(=O)NCCCOCCOCCOCCCNC(=O)c7ccc(-c8nc9ccc(-c%10ccc%11nc(-c%12ccc(C(=O)NCCN(C)C)cc%12)[nH]c%11c%10)cc9[nH]8)cc7)cc6)[nH]c5c4)cc3[nH]2)cc1` [Compound 429] gave an IC50 of 9.6 µM.
Compound `C[C@@H](C(=O)N(C)[C@@H](C)C(=O)N(C)[C@@H](C)C(=O)N(C)[C@@H](C)C(=O)N(CCCn1cc(COCCOCCN(C)C(=O)c2ccc(-c3nc4ccc(-c5ccc6nc(-c7ccc(C(=O)NCCN(C)C)cc7)[nH]c6c5)cc4[nH]3)cc2)nn1)CC(N)=O)N(C)C(=O)CNCCCn1cc(COCCOCCN(C)C(=O)c2ccc(-c3nc4ccc(-c5ccc6nc(-c7ccc(C(=O)NCCN(C)C)cc7)[nH]c6c5)cc4[nH]3)cc2)nn1` [Compound 430] has an IC50 of 7.7 µM.
`C[C@H](C(=O)N(C)[C@H](C)C(=O)N(C)[C@H](C)C(=O)N(C)[C@H](C)C(=O)N(CCCn1cc(COCCOCCOCCOCCNC(=O)c2ccc(-c3nc4ccc(-c5ccc6nc(-c7ccc(C(=O)NCCN(C)C)cc7)[nH]c6c5)cc4[nH]3)cc2)nn1)CC(N)=O)N(C)C(=O)CNCCCn1cc(COCCOCCOCCOCCNC(=O)c2ccc(-c3nc4ccc(-c5ccc6nc(-c7ccc(C(=O)NCCN(C)C)cc7)[nH]c6c5)cc4[nH]3)cc2)nn1` [Compound 431] showed an IC50 of over 200 µM.
